# Measured values taken from ChEMBL document CHEMBL1147490, “N-4-methansulfonamidobenzyl-N'-2-substituted-4-tert-butyl-benzyl thioureas as potent vanilloid receptor antagonistic ligands” (Bioorg Med Chem Lett, 2004).
# Key:
# [1] = target: T1, Vanilloid receptor (Rattus norvegicus, UniProt Q9ERZ8+Q9WUD2+O35433); assay: In vitro inhibitory concentration was determined against [45Ca2+]- influx in rat DRG neurons; assay type: functional
# [2] = target: T1, Vanilloid receptor; assay: In vitro induction of 45 [Ca2+] influx in rat DRG neurons (ineffective at 30 uM, partial activity); assay type: functional
IC50 [1] [nM],EC50 [2],Compound
500,,COCOc1cc(C(C)(C)C)ccc1C/N=C(\S)NCc1ccc(NS(C)(=O)=O)cc1
770,,CC(C)(C)c1ccc(C/N=C(\S)NCc2ccc(NS(C)(=O)=O)cc2)c(OCc2ccccc2)c1
70,,CC(C)(C)C(=O)OCc1cc(C(C)(C)C)ccc1C/N=C(\S)NCc1ccc(NS(C)(=O)=O)cc1
15,Partially active,CC(C)(C)C(=O)OCc1cc(C(C)(C)C)ccc1C/N=C(\S)NCc1ccc(NS(C)(=O)=O)c(F)c1
60,,CC(C)(C)COc1cc(C(C)(C)C)ccc1C/N=C(\S)NCc1ccc(NS(C)(=O)=O)cc1
580,,CC(=O)OCc1cc(C(C)(C)C)ccc1C/N=C(\S)NCc1ccc(NS(C)(=O)=O)cc1
3000,,N/C(S)=N/N1CCCC1
1100,,CCOc1cc(C(C)(C)C)ccc1C/N=C(\S)NCc1ccc(NS(C)(=O)=O)cc1
,Partially active,CC(C)(C)c1ccc(CNC(=S)NCc2ccc(NS(C)(=O)=O)c(F)c2)cc1
70,,CCCCCOc1cc(C(C)(C)C)ccc1C/N=C(\S)NCc1ccc(NS(C)(=O)=O)cc1
150,,CCCCCCOc1cc(C(C)(C)C)ccc1C/N=C(\S)NCc1ccc(NS(C)(=O)=O)cc1
220,,CC(C)(C)C(=O)Oc1cc(C(C)(C)C)ccc1C/N=C(\S)NCc1ccc(NS(C)(=O)=O)cc1
350,,CC(C)Oc1cc(C(C)(C)C)ccc1C/N=C(\S)NCc1ccc(NS(C)(=O)=O)cc1
66,Partially active,CC(C)(C)COc1cc(C(C)(C)C)ccc1C/N=C(\S)NCc1ccc(NS(C)(=O)=O)c(F)c1
30,,NC(=O)N1CCN(c2ccccn2)CC1
250,,CCCOc1cc(C(C)(C)C)ccc1C/N=C(\S)NCc1ccc(NS(C)(=O)=O)cc1
2400,,COc1cc(C(C)(C)C)ccc1C/N=C(\S)NCc1ccc(NS(C)(=O)=O)cc1
20,Partially active,CCCCOc1cc(C(C)(C)C)ccc1C/N=C(\S)NCc1ccc(NS(C)(=O)=O)c(F)c1
2000,,CCCNCC(=O)N(CCC)CC(=O)N(CCC)CC(=O)O
320,,COc1cc(CC/N=C(\S)NCCc2ccccc2)ccc1O
60,,CCCCOc1cc(C(C)(C)C)ccc1C/N=C(\S)NCc1ccc(NS(C)(=O)=O)cc1
60,,COCCOc1cc(C(C)(C)C)ccc1C/N=C(\S)NCc1ccc(NS(C)(=O)=O)cc1
70,,Cc1cc(CN/C(S)=N/Cc2ccc(NS(C)(=O)=O)cc2)c(COC(=O)C(C)(C)C)cc1C

Compound,IC50 [1] [nM],EC50 [2]
C=C(C)[C@]12C[C@@H](C)[C@@]34O[C@](Cc5ccccc5)(O[C@@H]1[C@@H]3C=C(COC(=O)Cc1cc(I)c(O)c(OC)c1)C[C@]1(O)C(=O)C(C)=C[C@@H]41)O2 [IODORESINIFERATOXIN],4000,
